Reference: patent US20240287062A1, “NAPHTHYRIDONE COMPOUNDS FOR INHIBITION OF RAF KINASES AND/OR BCR-ABL TYROSINE KINASES” (Enliven Inc., priority 2021, published 2024)

Assays:
Assay type in all cases: biochemical
c-KIT = c-KIT (Homo sapiens (Human), UniProt P10721); assay: Luminescence-based c-KIT kinase assay (Km ATP), ADP-Glo; conditions: compound at 100 nM concentration
Description: Kinase activity of c-KIT was measured using the ADP-Glo system (Promega). Compounds were diluted in DMSO at 100 μM. 20 nL of compound or DMSO only (high control, HC) were added to a 384-well plate (OptiPlate-384, PerkinElmer) using an Echo550 liquid handler (Labcyte). 15 μL of kinase solution (10 mM MgCl2, 0.01% Brij-35, 2 mM DTT, 0.05% BSA, 1 mM EGTA, 50 mM HEPES pH 7.5, and 13.3 nM c-KIT [Carna Biosciences]) were added to each well of the 384-well plate containing the compounds. No enzyme control wells were included (low control, LC). The plate was incubated at room temperature for 30 minutes. 5 μL of a second solution containing 10 mM MgCl2, 0.01% Brij-35, 2 mM DTT, 0.05% BSA, 1 mM EGTA, 50 mM HEPES pH 7.5, 0.8 μg/ml Poly(Glu-Tyr) (Sigma, Cat No 97105-00-5), and 400 μM ATP were added to each well to start the kinase reaction. The plate was incubated for 90 minutes at room temperature. 20 μL of ADP-Glo reagent (Promega) were then added to each well and the plate was incubated for 40 minutes at room temperature. […] During this step, ADP was converted to ATP, a substrate for luciferase, to produce luminescence signal. Luminescence was measured on an Envision plate reader (Perkin Elmer). Luminescence signal positively correlates with kinase activity. The percent inhibition of kinase activity was calculated as follows: percent inhibition=100×(LumHC−LumSample)/(LumHC−LumLC). […]

ABL1 (T315I) = ABL1 (T315I) (Homo sapiens (Human), UniProt P00519, T315I); assay: Radioactivity-based ABL kinase assay; conditions: 100 μM 33P-ATP
Description: (§1) The following kinase assay was based on Anastassiadis et al (2011) Nat Biotech, 29:1039-1045. Briefly, ABL kinase substrate (ABLtide: EAIYAAPFAKKK; Genscript) was freshly prepared in reaction buffer (20 mM HEPES pH 7.5, 10 mM MgCl2, 1 mM EGTA, 0.02% Brij-35, 0.02 mg/ml BSA, 0.1 mM Na3VO4, 2 mM DTT, and 1% DMSO) to a final substrate concentration of 20 μM. ABL wild type and ABL mutant kinases were added to the substrate solution and mixed to the final enzyme concentrations shown in Table 3 below.
(§2) Serial dilutions of compounds were prepared in 100% DMSO Compounds or DMSO only (vehicle control) were then added to the kinase reaction mixture and incubated for 20 minutes at room temperature. 100 μM ^33P-ATP (specific activity 10 μCi/μl) was then added to the kinase reaction mixture to initiate the kinase reaction. This mixture was incubated for 2 hours at room temperature. Radioactivity was then measured by radioisotope filter-binding. Kinase activity data were expressed as the percent remaining kinase activity in test samples compared to vehicle control reactions. IC50 values and curve fits were obtained using a nonlinear regression model with a sigmoidal dose response (Prism GraphPad Software).

ABL1 (F317L) = ABL1 (F317L) (Homo sapiens (Human), UniProt P00519, F317L); assay: Radioactivity-based ABL kinase assay; conditions: 100 μM 33P-ATP
Description: as §1, §2

ABL1 (H396P) = ABL1 (H396P) (Homo sapiens (Human), UniProt P00519, H396P); assay: Radioactivity-based ABL kinase assay; conditions: 100 μM 33P-ATP
Description: as §1, §2

ABL1 (E255V) = ABL1 (E255V) (Homo sapiens (Human), UniProt P00519, E255V); assay: Radioactivity-based ABL kinase assay; conditions: 100 μM 33P-ATP
Description: as §1, §2

ABL1 (Q252H) = ABL1 (Q252H) (Homo sapiens (Human), UniProt P00519, Q252H); assay: Radioactivity-based ABL kinase assay; conditions: 100 μM 33P-ATP
Description: as §1, §2

ABL1 (Y253H) = ABL1 (Y253H) (Homo sapiens (Human), UniProt P00519, Y253H); assay: Radioactivity-based ABL kinase assay; conditions: 100 μM 33P-ATP
Description: as §1, §2

ABL1 (Y253F) = ABL1 (Y253F) (Homo sapiens (Human), UniProt P00519, Y253F); assay: Radioactivity-based ABL kinase assay; conditions: 100 μM 33P-ATP
Description: as §1, §2

ABL1 (M351T) = ABL1 (M351T) (Homo sapiens (Human), UniProt P00519, M351T); assay: Radioactivity-based ABL kinase assay; conditions: 100 μM 33P-ATP
Description: as §1, §2

ABL1 (F317I) = ABL1 (F317I) (Homo sapiens (Human), UniProt P00519, F317I); assay: Radioactivity-based ABL kinase assay; conditions: 100 μM 33P-ATP
Description: as §1, §2

ABL1 = ABL1 (Homo sapiens (Human), UniProt P00519); assay: Radioactivity-based ABL kinase assay; conditions: 100 μM 33P-ATP
Description: as §1, §2

ABL1 (G250E) = ABL1 (G250E) (Homo sapiens (Human), UniProt P00519, G250E); assay: Radioactivity-based ABL kinase assay; conditions: 100 μM 33P-ATP
Description: as §1, §2

ABL1 (E255K) = ABL1 (E255K) (Homo sapiens (Human), UniProt P00519, E255K); assay: Radioactivity-based ABL kinase assay; conditions: 100 μM 33P-ATP
Description: as §1, §2

ABL1 (V299L) = ABL1 (V299L) (Homo sapiens (Human), UniProt P00519, V299L); assay: Radioactivity-based ABL kinase assay; conditions: 100 μM 33P-ATP
Description: as §1, §2

Sequence of c-KIT (P10721 26-976): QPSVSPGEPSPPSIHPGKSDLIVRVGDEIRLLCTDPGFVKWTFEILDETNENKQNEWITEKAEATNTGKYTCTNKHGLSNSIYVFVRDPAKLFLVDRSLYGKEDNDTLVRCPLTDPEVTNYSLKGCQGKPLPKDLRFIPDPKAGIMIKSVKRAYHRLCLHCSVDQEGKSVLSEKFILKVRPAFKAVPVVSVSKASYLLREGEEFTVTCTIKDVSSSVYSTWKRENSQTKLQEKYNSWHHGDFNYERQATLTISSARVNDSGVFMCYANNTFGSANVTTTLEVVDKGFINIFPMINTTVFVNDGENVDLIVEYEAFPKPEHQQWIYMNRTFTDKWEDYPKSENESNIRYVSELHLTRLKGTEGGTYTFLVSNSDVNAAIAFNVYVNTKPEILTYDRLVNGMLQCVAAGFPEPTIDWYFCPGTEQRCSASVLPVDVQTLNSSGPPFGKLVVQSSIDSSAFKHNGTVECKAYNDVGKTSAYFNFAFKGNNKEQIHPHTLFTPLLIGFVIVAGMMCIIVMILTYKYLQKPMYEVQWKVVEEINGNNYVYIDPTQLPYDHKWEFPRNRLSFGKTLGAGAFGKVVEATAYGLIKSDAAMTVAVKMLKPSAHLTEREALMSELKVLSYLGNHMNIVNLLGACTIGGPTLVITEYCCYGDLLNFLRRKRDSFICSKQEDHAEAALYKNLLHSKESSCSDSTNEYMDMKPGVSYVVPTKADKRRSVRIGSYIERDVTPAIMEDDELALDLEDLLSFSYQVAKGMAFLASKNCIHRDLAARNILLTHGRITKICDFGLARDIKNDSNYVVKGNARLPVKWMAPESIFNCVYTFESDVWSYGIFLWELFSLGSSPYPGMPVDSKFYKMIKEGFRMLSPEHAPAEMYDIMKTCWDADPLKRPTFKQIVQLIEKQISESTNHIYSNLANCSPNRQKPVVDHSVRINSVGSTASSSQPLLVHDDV

Row | SMILES | inhibition at 0.1 µM (c-KIT) [%] | IC50 (ABL1 (T315I)) [nM] | IC50 (ABL1 (F317L)) [nM] | IC50 (ABL1 (H396P)) [nM] | IC50 (ABL1 (E255V)) [nM] | IC50 (ABL1 (Q252H)) [nM] | IC50 (ABL1 (Y253H)) [nM] | IC50 (ABL1 (Y253F)) [nM] | IC50 (ABL1 (M351T)) [nM] | IC50 (ABL1 (F317I)) [nM] | IC50 (ABL1) [nM] | IC50 (ABL1 (G250E)) [nM] | IC50 (ABL1 (E255K)) [nM] | IC50 (ABL1 (V299L)) [nM]
1 | Cc1c(F)cncc1-c1cc2cnc(NC(=O)[C@@H]3C[C@@H]3F)cc2n(C)c1=O [Compound 28, (1S,2S)-2-fluoro-N-[3-(5-fluoro-4-methylpyridin-3-yl)-1-methyl-2-oxo-1,6-naphthyridin-7-yl]cyclopropane-1-carboxamide] | 7.3 | > 500 | 107 | 1.4 | 1.4 | 1.7 | 3.6 | 0.53 | 4.5 | 114 | 1.2 | 3.7 | 3.4 | 0.19
2 | Cc1c(F)cncc1-c1cc2cnc(NC(=O)C3CC3)cc2n(C)c1=O [Compound 2, N-[3-(5-fluoro-4-methylpyridin-3-yl)-1-methyl-2-oxo-1,6-naphthyridin-7-yl]cyclopropanecarboxamide] | 17 | 4400 | 17 | 1.2 | 0.61 | 1.2 | 0.93 | < 0.51 | 1.5 | 47 | 0.61 | 1.5 | 2 | < 0.51
